Values joined by “and” are separate entries in the source; they are usually repeats but may differ in a detail not shown here. Equal entries are not always repeated.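 Protocol summary: plate cells (96-well), add compound at 5 concentrations, incubate 48 h, interpolate endpoints linearly. At the GI50, growth is halved. Definition used: TGI = concentration required for complete inhibition of growth.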
Test system: MDA-MB-468 breast
Test: NCI tumour cell line growth inhibition, 48 h

SMILES	GI50	TGI
c1cncc(-c2nc3ccccc3s2)c1	> 100 µM	> 100 µM
COc1ccc(/C(=N\NC(N)=S)c2ccc(Cl)cc2)cc1OC	1.91 µM	7.99 µM
CC1(C)N=C(N)N=C(N)N1c1ccc(CCc2ccc(Cl)cc2S(=O)(=O)F)c(Cl)c1	3.59 µM	24.2 µM
COc1cc(-c2csc(NC(=O)Nc3cc(C(F)(F)F)cc(C(F)(F)F)c3)n2)cc(OC)c1OC	1.33 µM	9.28 µM
Oc1ccc2ccccc2c1C1NN=C(c2ccccc2)S1 (stereo unspecified)	0.536 µM	3.94 µM
O=CC(Br)C(Br)c1ccccc1 (stereo unspecified)	1.48 µM	3.65 µM
Nc1nc2ccc3[nH]ncc3c2c2c1CCCC2	1.46 µM	2.92 µM
O=[N+]([O-])c1ccc2nc(/C=C(\O)c3ccccc3)c(/C=C(\O)c3ccccc3)nc2c1	4 µM	61.7 µM
N#Cc1ccc(C2C3=C(CCCC3=O)OC3=C2C(=O)c2ccccc2C3=O)cc1 (stereo unspecified)	0.309 µM	0.867 µM
O=C(O)c1ccc([S-])cc1.[Au+].c1ccc(CN2[CH-]N(Cc3ccccc3)C(c3ccccc3)=C2c2ccccc2)cc1	0.188 µM	0.873 µM
COc1ccc(-c2cn(-c3cccc(C(=O)/C=C/c4ccc(O)c(OC)c4)c3)c(=O)[nH]2)cc1	5.46 µM	> 100 µM
CN[C@@H]1C[C@H]2O[C@@](C)([C@@H]1OC)n1c3ccccc3c3c4c(c5c6ccccc6n2c5c31)C(=O)N[C@H]4O	0.0176 µM	0.105 µM
CCO/C=N/C1=C(C#N)C(c2ccc(Cl)cc2)c2sc3c(C)cccc3c2O1 (stereo unspecified)	0.386 µM	14.5 µM
Cc1ccc(C(=O)/C(=C\c2ccc([N+](=O)[O-])cc2)S(=O)Cc2ccc(F)cc2)cc1 (stereo unspecified)	1.85 µM	3.69 µM
CCOc1ccc2nc(-c3cccc(OCC(=O)NC(C)C)c3)nc(Nc3ccc(-c4cn[nH]c4)cc3)c2c1	2.31 µM	14.9 µM
COc1cc(C2c3cc4c(cc3OC3(OC)COC(=O)C23)OCO4)cc(OC)c1OC (stereo unspecified)	0.616 µM	88.6 µM
Cn1cc(-c2nc(-c3c[nH]c4ccncc34)cs2)c2cc(F)ccc21	1.4 µM	2.89 µM
O=C(O)c1ccc2c3c(ncnc13)-c1ccccc1C2=O	> 81.9 µM	> 100 µM
COc1ccc(C2=Nc3c/c(=C\c4c(O)[nH]c5ccc(Cl)cc45)ccc3=N2)cc1	1.48 µM	3.07 µM
CSc1n(Cc2ccc3ccccc3c2)c(C)c[n+]1Cc1ccc2ccccc2c1	0.211 µM	0.672 µM
O=C(NCCN1CCC(O)CC1)c1cc2c(o1)C(=O)c1ccccc1C2=O	0.202 µM	0.559 µM
c1ccc(Nn2c(CCCCCCCCc3nnc(COc4ccccc4)n3Nc3ccccc3)nnc2COc2ccccc2)cc1	12.8 µM and 61.6 µM	> 300 µM

SMILES	GI50	TGI
COc1ccc(-c2nn(-c3cccc(Cl)c3)cc2-c2c(C#N)c(=O)n3[nH]c(-c4ccc(C)cc4)nc3c2C#N)cc1	1.05 µM	2.88 µM
COc1cc(F)cc([C@@H](CO)NC(=O)[C@@H](C)N2Cc3ccc(-c4nc(NC5CCOCC5)ncc4Cl)cc3C2=O)c1	1.82 µM	17 µM
COc1ccc2c3c(c4ccccc4cc13)C(=O)N(CCN(C)CCN)C2=O	0.289 µM	1.16 µM
C[n+]1c2ccccc2c(Nc2ccc(NS(=O)(=O)CCCCN=C(N)N)cc2)c2ccc(N)cc21	0.989 µM	26.1 µM
CCN(CC)CCCC(C)Nc1c2ccc(Cl)cc2nc2cc(OC)c(OC)cc12 (stereo unspecified)	1.3 µM	2.83 µM
COc1cc2c(cc1OC)-c1ccc3cc4c(cc3c1N(CCN(C)C)C2)OCO4	0.21 µM	0.762 µM
Cc1cc([N+](=O)[O-])ccc1NS(=O)(=O)c1cc(Cl)ccc1Cl	1.66 µM	7.61 µM
O=C1NC(=O)C(c2ccc(Cl)cc2)=C1Nc1ccc(Cl)c(C(=O)O)c1	> 25 µM	> 25 µM
CCCOC(=O)N[C@H]1CCc2cc(OC)c(OC)c(OC)c2-c2ccc(SC)c(=O)cc21	< 0.01 µM	13.5 µM
Cc1cc(Nc2ccc(F)cc2)nc(N2CCN(c3ccnc4cc(Cl)ccc34)CC2)n1	2.72 µM	> 100 µM
Cn1c(/C=C(\C#N)c2cccc(C(F)(F)F)c2)nc2c(N3CCOCC3)nc(Cl)nc21	0.432 µM	1.63 µM
COc1ccc2c(c1)c1nc3cc(C)c(C)cc3nc1n2CCN(C)C	0.761 µM	2.45 µM
COc1ccc2c(c1)CCc1[nH]nc(-c3cc(OC)c(OC)c(OC)c3)c1-2	< 0.01 µM	< 0.01 µM
CN1C(=O)C(=Cc2cn(Cc3ccccc3)c3ccccc23)C(=O)N(C)C1=O	0.0639 µM	0.158 µM
Cc1cccc(Cl)c1NC(=O)c1cnc(Nc2cc(N3CCOCC3)cc(N3CCOCC3)c2)s1	0.326 µM	2.77 µM
CCCCOC(=O)c1ccc(NC(=O)CCl)cc1	1.78 µM	4.08 µM
COc1ccc(SC2c3ccc(C)cc3Oc3nc(N)c(C#N)c(N)c32)cc1 (stereo unspecified)	1.79 µM	3.6 µM
CC(C)(C)NCCC(O)c1cc2c(Cl)cc(Cl)cc2c2cc(C(F)(F)F)ccc12 (stereo unspecified)	1.59 µM	3.06 µM
CCCC(=O)NC(c1cccnc1)c1cc(C(C)(C)C)c2cccnc2c1O (stereo unspecified)	2.31 µM	8.98 µM
CN1CCC(C(=O)Nc2n[nH]c3nc(-c4ccc(O)cc4)c(Br)cc23)CC1	0.486 µM and 0.779 µM	1.41 µM and 2.83 µM
COc1ccc([I+]c2ccccc2)cc1	0.253 µM	> 36.6 µM

Reference: PubChem BioAssay (NCI)
